Results from patent US4051259A, “Phenoxyacetic acid amide” (Les Laboratoires Bruneau & Cie, priority 1975, dated 1977).

Columns and labels:
[1] = toxicity (LD50) by the method of Karber and Behrens; type: in vivo, mice; conditions: mouse, in vivo; mice, po
Text: (§1) The toxicity (LD50) has been determined in the mice by the method of Karber and Behrens (Arch. Expl. Pathol. Pharmacol., 1931, 162, 48) and the anorexigenic activity (ED50) in the rat by the method of LeDouarec (J. Pharmacol. Paris 1970, 1, 419-22).

rat = experiment: anorexigenic activity (ED50) by the method of LeDouarec; type: in vivo; conditions: for ED50: rat, po, read-out: ED50 po (anorexia); for anorexigenic activity (in words): comparison of results within the table
Text: as §1

mice = experiment: toxicity (LD50) by the method of Karber and Behrens; type: in vivo; conditions: for toxicity (in words): comparison of results within the table
Text: as §1

Row | SMILES | LD50 [1] [mg/kg] | ED50 (rat) [mg/kg] | other results
1 | CCNc1ccc(OCC(=O)NC(C)Cc2cccc(C(F)(F)F)c2)cc1 (stereo not drawn) [LB 359] | 1600 | 15 | –
2 | CNc1ccc(OCC(=O)NC(C)Cc2cccc(C(F)(F)F)c2)cc1 (stereo not drawn) [LB 367] | 800 | 12 | –
3 | CCCNc1ccc(OCC(=O)NC(C)Cc2cccc(C(F)(F)F)c2)cc1 (stereo not drawn) [LB 368] | > 1600 | 20 | –
4 | CC(C)CNc1ccc(OCC(=O)NC(C)Cc2cccc(C(F)(F)F)c2)cc1 (stereo not drawn) [LB 369] | > 2000 | 25 | –
5 | CCCCCNc1ccc(OCC(=O)NC(C)Cc2cccc(C(F)(F)F)c2)cc1 (stereo not drawn) [LB 411, 1-methyl-2-(m-trifluoromethylphenyl)-ethylamide of p-pentylaminophenoxyacetic acid] | 4000 | 10 | intensity of intoxication symptoms (mice; at doses near the LD50): relatively weak; intoxication symptoms (mice; at doses near the LD50, first hour, then later): hypomotility and hypothermia during the first hour than tremor and convulsions; toxicity (in words) (mice): very low; toxicity (in words) (mice; listed as n-pentyl derivative): low toxicity; doses at which intoxication symptoms appear (mice; doses relative to LD50): only at doses near of the LD50; anorexigenic activity (in words) (rat): particularly high; anorexigenic activity (in words) (rat; listed as n-pentyl derivative): outstanding anorexia-inducing properties
6 | CCCCCCNc1ccc(OCC(=O)NC(C)Cc2cccc(C(F)(F)F)c2)cc1 (stereo not drawn) [LB 446] | > 4000 | 45 | –
7 | CCCCNc1ccc(OCC(=O)NC(C)Cc2cccc(C(F)(F)F)c2)cc1 (stereo not drawn) [LB 448] | > 2000 | 20 | –
